Reference: US6461598B1, “Process for conditioning hair” (Biosil Research Institute Inc., priority 2000, dated 2002)

Assay: Primary eye irritation, protocol FHSLA 16 CFR 1500.42
Type: in vivo
Details: products tested at 25% actives
Description: Eye irritation is a major concern in the formulation of personal care products, particularly when working with quats. Primary eye irritation using the protocol outlined in FHSLA 16 CFR 1500.42 The products were tested at 25% actives.

| SMILES | Primary eye irritation rating | Primary eye irritation score |
| --- | --- | --- |
| CCCCCCCCCCCCCCCC[N+](CC)(CC)CC.[Cl-] [Cetyltriethyl ammonium Chloride] | Severely Irritating | 115.0 |
| CCCCCCCCCCCCCCCC[N+](C)(C)C.[Cl-] [Cetyltrimethyl ammonium Chloride] | Severely Irritating | 106.0 |
| CCCCCCCCCCCCCCCCCC[N+](C)(C)Cc1ccccc1.[Cl-] [Stearalkonium Chloride] | Severely Irritating | 116.5 |
